According to patent US20240173312A1, “Pharmaceutical Composition Comprising a Benzoheterocyclic Compound and Androgen Receptor Pathway Modulator and Application Thereof” (KANGPU BIOPHARMACEUTICALS, LTD., priority 2015, published 2024):
Where two headings read alike, the source gives them in different places.

Tests used:
[1] = system: Vcap cells (androgen receptor (+) prostate cancer cells)
Experimental: (§1) In vitro test of the inhibition effect of the compound in combination with androgen receptor pathway modulators and the like on the prostate cancer cell proliferation.
(§2) The tested compounds were used alone or in combination with other androgen receptor pathway modulators respectively. […] After that, 100 μl of CellTiter-Glo® cell viability assay reagent (Promega, catalogue number G7570) was added to each well and mixed well on a vibrator for 10 minutes to induce cell lysis. The 96-well plate was placed at room temperature for 10 minutes, so as to stabilize its luminescence signal. A white bottom membrane was pasted on the bottom of the plate and the plate was tested using EnSpire.

[2] = system: Vcap cells (androgen receptor (+) prostate cancer cells); assay: CTG cell proliferation assay (CellTiter-Glo); settings: for Cell survival rate: notes of Table 9: 1.0 μM tested compound in combination with 1.0 μM Enzalutamide
Experimental: as §1, §2

[3] = Homo sapiens, VCaP, 120 h, read-out: Survival rate of Vcap cells, Table 3, tested compound alone
[4] = Homo sapiens, VCaP, 120 h, read-out: Survival rate of Vcap cells, Table 3, tested compound alone, 1.0 μM
[5] = Homo sapiens, VCaP, 120 h, read-out: Survival rate of Vcap cells, Table 4, tested compound alone
[6] = Homo sapiens, VCaP, 120 h, read-out: Survival rate of Vcap cells, Table 4, tested compound alone, 1 μM
[7] = Homo sapiens, VCaP, 120 h, read-out: Survival rate of Vcap cells, Table 5, tested compound alone
[8] = Homo sapiens, VCaP, 120 h, read-out: Survival rate of Vcap cells, Table 5, tested compound alone, 1.0 μM
[9] = Homo sapiens, VCaP, 120 h, read-out: Survival rate of Vcap cells, Table 9, tested compound alone
[10] = Homo sapiens, VCaP, 120 h, read-out: Survival rate of Vcap cells, Table 9, tested compound alone, 1.0 μM
[11] = Homo sapiens, VCaP, 120 h, read-out: Survival rate of Vcap cells, Table 10, tested compound alone
[12] = Homo sapiens, VCaP, 120 h, read-out: Survival rate of Vcap cells, Table 10, tested compound alone, 1.0 μM
[13] = Homo sapiens, VCaP, 120 h, read-out: Vcap cell proliferation inhibition rate
[14] = Table 3, tested compound 0.1 μM in combination with 1 μM ARN-509
[15] = Table 3, tested compound 0.1 μM in combination with 1 μM Enzalutamide
[16] = Table 3, tested compound 1.0 μM in combination with 1 μM ARN-509
[17] = Table 3, tested compound 1.0 μM in combination with 1 μM Enzalutamide
[18] = Table 3, tested compound 10 μM in combination with 1 μM ARN-509
[19] = Table 3, tested compound 10 μM in combination with 1 μM Enzalutamide
[20] = Table 3, tested compound alone, 1.0 μM
[21] = Table 4, tested compound 0.1 μM in combination with 1 μM Abiraterone acetate
[22] = Table 4, tested compound 0.1 μM in combination with 1 μM Galeterone
[23] = Table 4, tested compound 1 μM in combination with 1 μM Abiraterone acetate
[24] = Table 4, tested compound 1 μM in combination with 1 μM Galeterone
[25] = Table 4, tested compound 10 μM in combination with 1 μM Abiraterone acetate
[26] = Table 4, tested compound 10 μM in combination with 1 μM Galeterone
[27] = Table 4, tested compound alone, 1 μM
[28] = Table 5, tested compound 0.1 μM in combination with 1 μM ODM-201
[29] = Table 5, tested compound 1.0 μM in combination with 1 μM ODM-201
[30] = Table 5, tested compound 10 μM in combination with 1 μM ODM-201
[31] = Table 5, tested compound alone, 1.0 μM
[32] = Table 9, tested compound 0.1 μM in combination with 1 μM ARN-509
[33] = Table 9, tested compound 0.1 μM in combination with 1 μM Enzalutamide
[34] = Table 9, tested compound 1.0 μM in combination with 1 μM ARN-509
[35] = Table 9, tested compound 1.0 μM in combination with 1 μM Enzalutamide
[36] = Table 9, tested compound 10 μM in combination with 1 μM ARN-509
[37] = Table 9, tested compound 10 μM in combination with 1 μM Enzalutamide

Nc1cccc2c1CN(C1CCC(=O)NC1=O)C2=O (centres unmarked) [B001]
inhibition [1]: 21.4%
viability at 0.1 µM [2, 3]: 92%
viability at 1 µM [2, 4]: 82.8%
viability at 10 µM [2, 3]: 81.9%
viability at 0.1 µM [2, 5]: 92%
viability at 1 µM [2, 6]: 82.8%
viability at 10 µM [2, 5]: 81.9%
viability at 0.1 µM [2, 7]: 87.7%
viability at 1 µM [2, 8]: 75.3%
viability at 10 µM [2, 7]: 72.3%
viability at 0.1 µM [2, 9]: 83.9%
viability at 1 µM [2, 10]: 74.8%
viability at 10 µM [2, 9]: 69.1%
viability at 0.1 µM [2, 11]: 83.9%
viability at 1 µM [2, 12]: 74.7%
viability at 10 µM [2, 11]: 69.1%
inhibition at 0.41 µM [2, 13]: 18.7%
inhibition at 1.23 µM [2, 13]: 20.7%
inhibition at 11.11 µM [2, 13]: 20.9%
inhibition at 33.33 µM [2, 13]: 22%
inhibition at 100 µM [2, 13]: 19.6%
Survival rate of Vcap cells [2, 14]: 42.0%
Survival rate of Vcap cells [2, 15]: 40.3%
Survival rate of Vcap cells [2, 16]: 34.7%
Survival rate of Vcap cells [2, 17]: 35.6%
Survival rate of Vcap cells [2, 18]: 33.5%
Survival rate of Vcap cells [2, 19]: 33.7%
Survival rate of Vcap cells [2, 20]: 82.8%
Survival rate of Vcap cells [2, 21]: 78.5%
Survival rate of Vcap cells [2, 22]: 51.1%
Survival rate of Vcap cells [2, 23]: 68.0%
Survival rate of Vcap cells [2, 24]: 43.3%
Survival rate of Vcap cells [2, 25]: 62.9%
Survival rate of Vcap cells [2, 26]: 42.8%
Survival rate of Vcap cells [2, 27]: 82.8%
Survival rate of Vcap cells [2, 28]: 52.7%
Survival rate of Vcap cells [2, 29]: 41.4%
Survival rate of Vcap cells [2, 30]: 37.5%
Survival rate of Vcap cells [2, 31]: 75.3%
Survival rate of Vcap cells [2, 32]: 50.9%
Survival rate of Vcap cells [2, 33]: 52.1%
Survival rate of Vcap cells [2, 34]: 42.6%
Survival rate of Vcap cells [2, 35]: 42.3%
Survival rate of Vcap cells [2, 36]: 40.9%
Survival rate of Vcap cells [2, 37]: 38.4%
Cell survival rate [2]: 42.6%

[2H][C@]1(N2Cc3c(N)cccc3C2=O)CCC(=O)NC1=O [B005]
viability at 0.1 µM [2, 9]: 91.1%
viability at 1 µM [2, 10]: 85%
viability at 10 µM [2, 9]: 83.5%
Survival rate of Vcap cells [2, 32]: 53.4%
Survival rate of Vcap cells [2, 33]: 56.5%
Survival rate of Vcap cells [2, 34]: 47.6%
Survival rate of Vcap cells [2, 35]: 48.4%
Survival rate of Vcap cells [2, 36]: 46.2%
Survival rate of Vcap cells [2, 37]: 46.5%
Cell survival rate [2]: 47.6%

Cc1nc2cccc(N)c2c(=O)n1C1CCC(=O)NC1=O (centres unmarked) [K001]
viability at 0.1 µM [2, 3]: 85.1%
viability at 1 µM [2, 4]: 65.8%
viability at 10 µM [2, 3]: 61.4%
viability at 0.1 µM [2, 5]: 85.1%
viability at 1 µM [2, 6]: 65.8%
viability at 10 µM [2, 5]: 61.4%
viability at 0.1 µM [2, 7]: 79.2%
viability at 1 µM [2, 8]: 59.7%
viability at 10 µM [2, 7]: 51%
viability at 0.1 µM [2, 11]: 91.2%
viability at 1 µM [2, 12]: 73.8%
viability at 10 µM [2, 11]: 66.1%
Survival rate of Vcap cells [2, 14]: 43.6%
Survival rate of Vcap cells [2, 15]: 42.4%
Survival rate of Vcap cells [2, 16]: 36.0%
Survival rate of Vcap cells [2, 17]: 36.4%
Survival rate of Vcap cells [2, 18]: 33.5%
Survival rate of Vcap cells [2, 19]: 35.1%
Survival rate of Vcap cells [2, 20]: 65.8%
Survival rate of Vcap cells [2, 21]: 70.4%
Survival rate of Vcap cells [2, 22]: 49.1%
Survival rate of Vcap cells [2, 23]: 53.1%
Survival rate of Vcap cells [2, 24]: 41.3%
Survival rate of Vcap cells [2, 25]: 48.1%
Survival rate of Vcap cells [2, 26]: 39.4%
Survival rate of Vcap cells [2, 27]: 65.8%
Survival rate of Vcap cells [2, 28]: 53.5%
Survival rate of Vcap cells [2, 29]: 40.4%
Survival rate of Vcap cells [2, 30]: 35.2%
Survival rate of Vcap cells [2, 31]: 59.7%
